Assay results taken from patent US20070020193A1, “Dronabinol compositions and methods for using same” (priority 2005, published 2007).

Assays:
[1] = Example 1 single rising dose inhaled delta-9-THC study: plasma pharmacokinetics
Protocol: A randomized, double blind, placebo controlled, three way crossover, single rising dose human clinical study in two sequential groups (Groups I and II) of nine young healthy male subjects (18-45 years of age and body mass index (BMI) of 20-26 kg/m^2) of a metered dose inhalation composition according to one embodiment the present invention was conducted. Each subject received two ascending single doses of inhaled delta-9-THC and one single dose of inhaled placebo according to a three-way crossover balanced incomplete block design. The administered composition is detailed in Table 1. Composition I provides 0.3 mg per actuation, while Composition II provides 1.2 mg per actuation.
Each sequential dose level or period was separated by a washout period of two weeks, during which an interim safety and pharmacokinetic analysis was performed. A third group (Group III) of nine elderly healthy male and female subjects (65-80 years old and BMI 18-30 kg/m^2) was added after completion of the sixth study period to participate in a single treatment period. […] Five dose levels were evaluated: 0.3 mg, 1.2 mg, and 2.4 mg in Group I, 3.6 mg, 7.2 mg, and 9.6 mg in Group II, and 3.6 mg in Group III. Subjects were confined to the study center from the day prior to dosing until the 48 hour blood sample. Subjects returned to the center for 72, 96 and 120 hour pharmacokinetic samples. Various pharmacokinetic and pharmacodynamic measurements and sampling were taken according to the Assessment Flow Charts in FIG. 1 and FIG. 2. Safety was measured by monitoring adverse events, physical examination, clinical laboratory and pulmonary function tests, vital signs, 12 lead ECG, and telemetry.
Safety, pharmacokinetic and pharmacodynamic variables were estimated. Plasma concentrations of delta-9-THC (THC), 11-hydroxy-tetrahydrocanabinol (11-OH-THC) and delta-9-tetrahydrocannbinol-carboxylic acid (THC-COOH) were determined for pharmacokinetic analysis.
(§1) Whole blood samples were collected according to the assessment flowchart in EDTA tubes through venepuncture or indwelling catheter. Samples were immediately placed on ice and subsequently centrifuged within 30 minutes at 1,500 g for 10 minutes. Plasma was transferred into a 5 ml screw cap polypropylene tube, stoppered and stored at below minus 20° C. until transfer to the analytical laboratory for analysis. […] The measurement ranges were 0.05-30 ng/ml for delta-9-THC, 0.04-30 ng/ml for 11-OH-THC, and 0.25-10 ng/ml for THC-COOH.
Number of subjects, mean, standard deviation, coefficient variable (%) and geometric mean were calculated for all pharmacokinetic parameters.
For Example 1: A mixed ANOVA model with group and dose fixed effect and subject within group by dose as random effect was performed on the logarithms of the dose normalized pharmacokinetic parameters AUC, AUC0-t and Cmax. The overall treatment effect was tested by conventional F-test with Satterthwaites correction. Dose proportionality was tested using Helmert Contrasts and Reverse Helmert Contrasts. The within and between subject coefficient of variances were calculated from the estimated covariance parameters. Per dose level geometric means with 90% confidence interval were calculated for the dose-normalized values from the least squared means analysis outcomes. The difference between young and elderly subjects was explored using a one-way ANOVA.

[2] = Example 2 multiple rising dose inhaled delta-9-THC study: plasma pharmacokinetics
Protocol: A randomized, double-blind, placebo-controlled, multiple rising dose safety, tolerability, pharmacokinetic and pharmacodynamic study to assess two dose levels of inhaled delta-9-THC was conducted. Dose levels were studied in ascending order. Two consecutive groups (n=9/group) of healthy subjects were studied (Groups I and II). […] There was a lapse of at least 10 days between the groups for interim safety and pharmacokinetic analysis. Two dose levels were studied in ascending order. […] Subjects in each treatment Group (I or II) received single and multiple doses of inhaled delta-9-THC according to the following schedule:
For both dose levels, the first and the last dose of study drug was given under fasted conditions. Subjects were confined to the study site from the evening of Day −2 (Day 1 is the day of administration of the first dose of study drug) until the 120-hour blood sample following the final dose of study drug, resulting in an 18-day confinement period for subjects in Group I and a 25-day confinement period for Group II. Between the completion of Group I and the start of Group II, an interim safety and pharmacokinetic analysis was performed. Based on the results of the interim analyses, the dose level for investigation in Group II was determined.
Two MDI dosage strengths were used corresponding to the same formulations used in Example 1: one delivering 0.3 mg delta-9-THC (or placebo) per actuation and one delivering 1.2 mg delta-9-THC (or placebo) per actuation. The MDI consisted of a pressurized (via propellants) container and a metered-dose valve. The propellants provided the necessary force to expel the drug, and also acted as a solvent and diluent. The canister unit was provided within a mouthpiece (oral adapter), to expel an exact amount of drug, in the proper particle size distribution, upon each actuation. Two basic formulations containing 0.3 and 1.2 mg of delta-9-THC per 50 μL were developed with propellant 1,1,1,2 tetrafluoroethane 134a (HFA 134a), and ethanol as solvent. The formulations were made in accordance with the composition used in Example 1.
as §1
For Example 2: The statistical analysis encompassed an exploratory analysis of the single and multiple dose pharmacokinetics and dose proportionality of two dose levels of inhaled delta-9-THC in healthy subjects. Descriptive statistics included number of subjects, mean, standard deviation, coefficient of variation (%) and geometric mean for all pharmacokinetic parameters.
The exploratory analysis was performed on the logarithms of the dose-normalized pharmacokinetic parameters AUC(0-inf), AUC(0-t), AUC(0-τ) and Cmax. Dose proportionality was tested both at single dose and at multiple dose (steady state) by comparing the dose groups for all pharmacokinetic parameters by an analysis of variance with dose as fixed effect.
Dose proportionality was tested by the contrast between the dose groups. For this contrast on the logarithmic scale, p-values were given. After anti-logarithmic transformation, the resultant ratios of geometric means and 90% confidence intervals were given.
Accumulation was tested by comparing the steady state values for AUC(0-τ) with the single dose values for AUC(0-τ) by a mixed model analysis of variance with dose and day (with levels single dose and steady state) as fixed effects and subject within dose as random effect.

CCCCCc1cc(O)c2c(c1)OC(C)(C)C1CCC(CO)=CC21 (stereo not shown) [11-OH-THC, 11-hydroxy-tetrahydrocanabinol]
Cmax and AUC versus dose ([1]; 7.2 and 9.6 mg doses): less than proportional increase | Cmax and AUC versus dose ([1]; Groups I and II, doses from 0.3-3.6 mg): dose-related increase | Cmax ([1]; plasma, after 2.4 mg of delta-9-THC administered by MDI (FIGS. 6 and 7)): 0.77 ng/mL | achievement of steady state ([2]; 1.2 mg delta-9-THC three times daily): apparently reached after six days of dosing | Cmax, Geometric Mean (Range) ([2]; 1.2 mg m.d. (three times daily), Day 12, Group I): 0.54 (0.26-1.26) ng/mL | AUC(0-8), Arithmetic Mean (SD) ([2]; 1.2 mg m.d., Day 12, Group I): 2.07 (0.99) ng · h/mL | AUC(0-8), Geometric Mean (Range) ([2]; 1.2 mg m.d., Day 12, Group I): 1.89 (1.13-3.48) ng · h/mL | Cmax, Arithmetic Mean (SD) ([2]; 1.2 mg m.d., Day 12, Group I): 0.61 (0.36) ng/mL | tmax, Arithmetic Mean (SD) ([2]; 1.2 mg m.d., Day 12, Group I): 0.48 (0.36) h | tmax, median (range) ([2]; 1.2 mg m.d., Day 12, Group I): 0.42 (0.17-1.00) h | t½, Arithmetic Mean (SD) ([2]; 1.2 mg m.d., Day 12, Group I): 14.9 (6.08) h | t½, Geometric Mean (Range) ([2]; 1.2 mg m.d., Day 12, Group I): 13.9 (7.41-25.2) h | AUC(0-8), Arithmetic Mean (SD) ([2]; 1.2 mg s.d., Day 1): 1.50 (0.88) ng · h/mL | AUC(0-8), Geometric Mean (Range) ([2]; 1.2 mg s.d., Day 1): 1.26 (0.41-2.66) ng · h/mL | AUC(0-inf), Arithmetic Mean (SD) ([2]; 1.2 mg s.d., Day 1): 1.93 (1.22) ng · h/mL | AUC(0-inf), Geometric Mean (Range) ([2]; 1.2 mg s.d., Day 1): 1.56 (0.49-3.39) ng · h/mL | tmax, Arithmetic Mean (SD) ([2]; 1.2 mg s.d., Day 1): 0.48 (0.75) h | tmax, median (range) ([2]; 1.2 mg s.d., Day 1): 0.17 (0.17-2.00) h | t½, Arithmetic Mean (SD) ([2]; 1.2 mg s.d., Day 1): 4.19 (1.67) h | t½, Geometric Mean (Range) ([2]; 1.2 mg s.d., Day 1): 3.91 (2.55-6.01) h | Cmax, Arithmetic Mean (SD) ([2]; 1.2 mg s.d., Day 1, plasma): 0.86 (0.57) ng/mL | Cmax, Geometric Mean (Range) ([2]; 1.2 mg s.d., Day 1, plasma): 0.63 (0.10-1.55) ng/mL | Cmax, Geometric Mean (Range) ([2]; 3.6 mg m.d. (three times daily), Day 19, Group II): 2.87 (1.27-6.97) ng/mL | AUC(0-8), Arithmetic Mean (SD) ([2]; 3.6 mg m.d., Day 19, Group II): 10.1 (6.13) ng · h/mL | AUC(0-8), Geometric Mean (Range) ([2]; 3.6 mg m.d., Day 19, Group II): 8.69 (4.06-19.8) ng · h/mL | Cmax, Arithmetic Mean (SD) ([2]; 3.6 mg m.d., Day 19, Group II): 3.40 (2.17) ng/mL | tmax, Arithmetic Mean (SD) ([2]; 3.6 mg m.d., Day 19, Group II): 0.27 (0.20) h | tmax, median (range) ([2]; 3.6 mg m.d., Day 19, Group II): 0.17 (0.17-0.67) h | t½, Arithmetic Mean (SD) ([2]; 3.6 mg m.d., Day 19, Group II): 57.3 (37.9) h | t½, Geometric Mean (Range) ([2]; 3.6 mg m.d., Day 19, Group II): 39.5 (5.65-94.2) h | AUC(0-8), Arithmetic Mean (SD) ([2]; 3.6 mg s.d., Day 1): 5.15 (3.04) ng · h/mL | AUC(0-8), Geometric Mean (Range) ([2]; 3.6 mg s.d., Day 1): 4.44 (2.22-9.46) ng · h/mL | AUC(0-inf), Arithmetic Mean (SD) ([2]; 3.6 mg s.d., Day 1): 6.82 (3.98) ng · h/mL | AUC(0-inf), Geometric Mean (Range) ([2]; 3.6 mg s.d., Day 1): 5.86 (3.03-11.6) ng · h/mL | tmax, Arithmetic Mean (SD) ([2]; 3.6 mg s.d., Day 1): 0.18 (0.01) h | tmax, median (range) ([2]; 3.6 mg s.d., Day 1): 0.17 (0.17-0.20) h | t½, Arithmetic Mean (SD) ([2]; 3.6 mg s.d., Day 1): 5.98 (2.91) h | t½, Geometric Mean (Range) ([2]; 3.6 mg s.d., Day 1): 5.44 (2.96-11.0) h | Cmax, Arithmetic Mean (SD) ([2]; 3.6 mg s.d., Day 1, plasma): 2.21 (1.37) ng/mL | Cmax, Geometric Mean (Range) ([2]; 3.6 mg s.d., Day 1, plasma): 1.91 (1.12-4.38) ng/mL | achievement of steady state ([2]; 3.6-mg dose level three times daily): achieved after seven or eight days of dosing | accumulation during multiple dosing ([2]; 8-hours dosing interval): accumulation occurred during multiple dosing | Ratio AUC(0-8) m.d./AUC(0-8) s.d. (Accumulation factor), Mean ([2]; Group I, 1.2 mg): 1.59 | Ratio AUC(0-8) m.d./AUC(0-inf) s.d. (Linearity), Mean ([2]; Group I, 1.2 mg): 1.30 | Ratio AUC(0-8) m.d./AUC(0-8) s.d. (Accumulation factor), Mean ([2]; Group II, 3.6 mg): 2.10 | Ratio AUC(0-8) m.d./AUC(0-inf) s.d. (Linearity), Mean ([2]; Group II, 3.6 mg): 1.55 | dose proportionality: geometric mean ratio (3.6 mg:1.2 mg) of dose-normalized AUC(0-8) (90% confidence interval) ([2]; Multiple dose): 1.53 (0.87-2.69) | dose proportionality: geometric mean ratio (3.6 mg:1.2 mg) of dose-normalized Cmax (90% confidence interval) ([2]; Multiple dose): 1.79 (0.95-3.36) | dose proportionality: geometric mean ratio (3.6 mg:1.2 mg) of dose-normalized AUC(0-8) (90% confidence interval) ([2]; Single dose): 1.18 (0.60-2.33) | dose proportionality: geometric mean ratio (3.6 mg:1.2 mg) of dose-normalized AUC(0-inf) (90% confidence interval) ([2]; Single dose): 1.25 (0.61-2.57) | dose proportionality: geometric mean ratio (3.6 mg:1.2 mg) of dose-normalized AUC(0-t) (90% confidence interval) ([2]; Single dose): 1.43 (0.64-3.20) | dose proportionality: geometric mean ratio (3.6 mg:1.2 mg) of dose-normalized Cmax (90% confidence interval) ([2]; Single dose): 1.01 (0.42-2.42) | Cmax, fold lower compared to the parent compound ([2]; after multiple dosing): ~13 fold | exposure compared to the parent drug (AUC(0-8)) ([2]; after multiple dosing): approximately two-fold lower | Cmax, fold lower compared to the parent compound ([2]; after single dosing): approximately 25 fold | dose proportionality of pharmacokinetic parameters ([2]; after single or multiple dose administration): not found to deviate significantly | plasma concentration-time curve, elimination profile ([2]; both dose levels): at least a bi-phasic elimination profile | time of peak plasma concentration ([2]; both dose levels, post-dose): between 10 minutes and 2 hours post-dose | exposure compared to the parent drug (AUC(0-inf)) ([2]; following single dose administration): approximately four-fold lower | Cmax and AUC values versus dose ([2]; single and multiple dose administration, 1.2 and 3.6 mg): Dose-related increases | Terminal elimination half-lives (summary estimate) ([2]; summary, best estimated after multiple dosing): ~40 h
